For orientation: MIC means the smallest concentration in the dilution series that meets the test's criterion for growth inhibition. A lower MIC goes with inhibition by little substance.

The record followed here is US6664224B2, “Quaternary ammonium salt and process for the preparation thereof” (priority 2000, dated 2003).

Data set [1] has as its system Escherichia coli K12 W 3110. The data set can be described thus: Minimum development inhibiting concentration (MIC) against bacteria, broth dilution method. Format: cell-based. The note with it: for MIC Escherichia coli K12 W 3110: 37° C. 24 hours; for MIC: Escherichia coli, K12W3110, 37° C. 24 hours. On the procedure: A bacteria solution in stationary state which had been adjusted with a nutrient broth according to an ordinary broth dilution method such that the concentration of bacterial suspension reached 10^6 cell/ml was added to chemical solutions having concentrations which vary stepwise where it was then allowed to stand at a temperature of 37° C. for 24 hours for culture. The bacteria solution was then examined to see if the proliferation of bacteria occurred. Thus, MIC was determined.
Escherichia coli K12 W 3110 was used as a sample bacterium. Compounds obtained in Examples 1 to 9 and benzalkonium chloride prepared in Comparative Example 1 were used as test samples.
The compounds obtained in Examples 10 to 19 and benzalkonium chloride were determined for MIC value against Escherichia coli K12 W 3110 in the same manner as in Test Example 3.
In general terms: Broth dilution looks for growth in wells or tubes with falling amounts of substance.

A further data set deals with Erythrocyte. In words: Minimum hemolytic activity concentration against erythrocyte. Format: cell-based. The settings on record: human erythrocyte, 37° C. 1 hour, O.D.540, 50% hemolysis. On the procedure:
Human blood was collected. The sample blood was then mixed with the equal amount of alsebar solution (glucose: 2.05 g; NaCl: 0.42 g; sodium citrate: 0.8 g; citric acid: 0.55 g; pH: 6.1). The mixture was then stored at a temperature of 4° C. Shortly before used for experiment, the alsebar stored blood was subjected to centrifugal separation. Thus, the supernatant liquid and the leukocyte layer on the erythrocyte were removed. To the erythrocyte was then added PBS in an amount of […] that of the erythrocyte to obtain a 50% erythrocyte. 10 μl of the 50% erythrocyte was then mixed with 990 μl of each of chemicals which had been diluted with PBS in amounts varying stepwise. The erythrocyte was acted upon by the chemical at a temperature of 37° C. for 1 hour. The mixture was then subjected to centrifugal separation. The supernatant liquid was collected for the measurement of the optical density at 540 nm (O.D.540). Separately, the foregoing procedure was followed except that no chemicals were used to prepare a 0% hemolytic control. The foregoing procedure was followed except that Milliq water was used instead of PBS to prepare a 100% hemolytic control. For the minimum hemolytic activity concentration of chemical, the minimum concentration at which the hemolytic concentration is […] was determined.

Data set [2] has as its system Bacillus substilis ATCC 6633. The data set can be described thus: Minimum bactericidal concentration (MBC) against bacteria. The settings on record: culture 37° C. 24 hours. The class given is cell-based, Bacillus subtilis. On the procedure: (§1) A bacteria solution in the initial stage of logarithmic productive phase which had been adjusted with a nutrient broth according to an ordinary sterilized water dilution method such that the concentration of bacterial suspension reached 10^6 cell/ml was brought into contact with chemical solutions having concentrations which vary stepwise at a temperature of 30° C. for 30 minutes, and then transplanted to a nutrient broth where it was then allowed to stand at a temperature of 37° C. for 24 hours for culture. The nutrient broth was then examined to see if the proliferation of bacteria occurred. Thus, MBC was determined.
(§2) Five kinds of gram-negative bacteria and four kinds of gram-positive bacteria were used as sample bacteria.
(§3) BAMP-6 (Example 12), BAMD-6,8 (Example 13), BAMT-6 (Example 17) and benzalkonium chloride (Comparative Example 1) were determined for MBC value against 5 kinds of gram-negative bacteria and 4 kinds of gram-positive bacteria in the same manner as in Test Example 1.

The test system of the next data set is Bacillus cereus IFO 3001. The description is as above. Format: cell-based. The settings on record: culture 37° C. 24 hours. How it is done:
as §1, §2, §3

Data set [3] concerns Klebsiella pneumoniae ATCC 13883. The data set is described as above. The class given is cell-based. The note with it: culture 37° C. 24 hours. How it is done:
as §1, §2, §3

Data set [4] concerns Escherichia coli K12 OUT 8401. Described as above. The class given is cell-based. The settings on record: culture 37° C. 24 hours. On the procedure: as §1, §2, §3
Another data set deals with Proteus rettgeri NIT 96. The data set is described as above. Format: cell-based. The settings on record: culture 37° C. 24 hours. On the procedure: as §1, §2, §3
For data set [5], the system named is Escherichia coli K12 W 3110. The data set is described as above. The class given is cell-based. The settings on record: culture 37° C. 24 hours. How it is done:
as §1, §2, §3

In data set [6] the test system is Pseudomonas aeruginosa ATCC 27583. The description is as above. The class given is cell-based. The note with it: culture 37° C. 24 hours. On the procedure:
as §1, §2, §3

Data set [7] relates to Staphylococcus aureus IFO 12732. The description is as above. Format: cell-based. The note with it: culture 37° C. 24 hours. How it is done: as §1, §2, §3
Data set [8] concerns Bacillus subtilis IFO 3134. The description is as above. The note with it: culture 37° C. 24 hours. The class given is cell-based. On the procedure: as §1, §2, §3

Read-outs that look alike come from different tables or passages of the source.

Turning to “1,4-bis(N,N-butyl-N-methylammoniomethyl)-2,3,5,6-tetramethylphenylene dichloride [BAMD-4]”, in data set [1], the “MIC Escherichia coli K12 W 3110” value is reported as 16 ppm.

Turning to “1,4-bis(N,N-dioctyl-N-methylammoniomethyl)-2,3,5,6-tetramethylphenylene dichloride [BAMD-8]”, the “MIC Escherichia coli K12 W 3110” value in data set [1] came out at 1 ppm.

Take “1,4-bis(N,N-dioctyl-N-methylammoniomethyl)phenylene di-p-toluenesulfonate [Example 4BAMP-8S]”: the “MIC Escherichia coli K12 W 3110” value in data set [1] was determined as 1 ppm.

Consider “1,4-bis(N,N-dipentyl-N-methylammoniomethyl)phenylene di-p-tolyenesulfonate [Example 4BAMP-5S]”, for which the “Minimum hemolytic activity concentration Erythrocyte” value in the data set with Erythrocyte was 400 ppm. Moreover, in data set [1], the “MIC Escherichia coli K12 W 3110” value stood at 16 ppm.

With “1,4-bis(N-octyl-N-hexyl-N-methylammoniomethyl)-2,3,5,6-tetramethylphenylene dichloride [BAMD-6, 8]”, in data set [1], the “MIC Escherichia coli K12 W 3110” value came out at 1 ppm. In addition, the MBC (in data set [2] (contact 30° C. 30 minutes); with Bacillus cereus IFO 3001 (contact 30° C. 30 minutes); in [3] (contact 30° C. 30 minutes); in data set [4] (contact 30° C. 30 minutes); against Proteus rettgeri NIT 96 (contact 30° C. 30 minutes); in [5] (contact 30° C. 30 minutes)) was below 2 ppm in each case. The MBC in data set [6] (contact 30° C. 30 minutes), in [7] (contact 30° C. 30 minutes) and in data set [8] (contact 30° C. 30 minutes) was below 2 ppm each time.

Take `CCCCCC[N+](C)(CCCC)Cc1ccc(C[N+](C)(CCCC)CCCCCC)cc1.[I-].[I-]` (stereo not shown) [4BAMP-4, 6I, 1,4-bis(N-butyl-N-hexyl-N-methylammoniomethyl)phenylene diiodide]: in data set [1], the “MIC Escherichia coli K12 W 3110” value stood at 16 ppm.

As for `CCCCCCCC[N+](C)(CCCC)Cc1ccc(C[N+](C)(CCCC)CCCCCCCC)cc1.[I-].[I-]` (stereo not shown) [4BAMP-4, 8I, 1,4-bis(N-butyl-N-octyl-N-methylammoniomethyl)phenylene diiodide], the “MIC Escherichia coli K12 W 3110” value in [1] was 2 ppm.

In the case of `CCCCC[N+](C)(CCCCC)Cc1c(C)c(C)c(C[N+](C)(CCCCC)CCCCC)c(C)c1C.[Cl-].[Cl-]` [BAMD-5, 1,4-bis(N,N-dipentyl-N-methylammoniomethyl)-2,3,5,6-tetramethylphenylene dichloride], the “Minimum hemolytic activity concentration Erythrocyte” value in the data set on Erythrocyte was 800 ppm. In addition, in data set [1], the “MIC Escherichia coli K12 W 3110” value is reported as 2 ppm.

As to `CCCC[N+](C)(CCCC)Cc1c(C)cc(C)c(C[N+](C)(CCCC)CCCC)c1C.[Cl-].[Cl-]` [BAMT-4, 2,4-bis(N,N-dibutyl-N-methylammoniomethyl)-1,3,5-trimethylbenzene dichloride], in data set [1], inhibition of growth (MIC) required 8 µg/mL.

With `CCCCC[N+](C)(CCCCC)Cc1c(C)cc(C)c(C[N+](C)(CCCCC)CCCCC)c1C.[Cl-].[Cl-]` [BAMT-5, 2,4-bis(N,N-dipentyl-N-methylammoniomethyl)-1,3,5-trimethylbenzene dichloride], the “Minimum hemolytic activity concentration Erythrocyte” value in the data set with Erythrocyte is 800 ppm. The compound further came in with a minimal inhibitory concentration (MIC) in data set [1] of 2 µg/mL.

For `CCCCCC[N+](C)(CCCCCC)Cc1c(C)cc(C)c(C[N+](C)(CCCCCC)CCCCCC)c1C.[Cl-].[Cl-]` [BAMT-6, 2,4-bis(N,N-dihexyl-N-methylammoniomethyl)-1,3,5-trimethylbenzene dichloride], the “Minimum hemolytic activity concentration Erythrocyte” value in the data set with Erythrocyte is reported as 400 ppm. The compound also registered an MIC in data set [1] of 1 µg/mL. Besides, the MBC in data set [2] (ATCC6633, contact 30° C. 30 minutes, read-out: MBC) was below 2 µg/mL; in the data set on Bacillus cereus IFO 3001 (IFO3001, contact 30° C. 30 minutes, read-out: MBC), below 2 µg/mL; in data set [3] (ATCC13883, contact 30° C. 30 minutes, read-out: MBC), below 2 µg/mL; in data set [4] (K12OUT8401, contact 30° C. 30 minutes, read-out: MBC), below 2 µg/mL; in the data set with Proteus rettgeri NIT 96 (Providencia rettgeri, NIT96, contact 30° C. 30 minutes, read-out: MBC), below 2 µg/mL; in data set [5] (K12W3110, contact 30° C. 30 minutes, read-out: MBC), 4 µg/mL. For the same compound, the MBC in [6] (ATCC27583, contact 30° C. 30 minutes, read-out: MBC) was 4 µg/mL; in data set [7] (IFO12732, contact 30° C. 30 minutes, read-out: MBC), below 2 µg/mL; in data set [8] (IFO3134, contact 30° C. 30 minutes, read-out: MBC) it was below 2 µg/mL.

For the compound `CCCCCCCC[N+](C)(CCCCCC)Cc1c(C)cc(C)c(C[N+](C)(CCCCCC)CCCCCCCC)c1C.[Cl-].[Cl-]` (stereo not shown) [BAMT-6, 8, 2,4-bis(N-octyl-N-hexyl-N-methylammoniomethyl)-1,3,5-trimethylbenzene dichloride], 1 µg/mL was the least that counted as inhibitory in data set [1] (MIC).

As for `CCCCCCCC[N+](C)(CCCCCCCC)Cc1c(C)cc(C)c(C[N+](C)(CCCCCCCC)CCCCCCCC)c1C.[Cl-].[Cl-]` [BAMT-8, 2,4-bis(N,N-dioctyl-N-methylammoniomethyl)-1,3,5-trimethylbenzene dichloride], in data set [1], the MIC stood at 1 µg/mL.

For the compound `CCCCCC[N+](C)(CCCCCC)Cc1ccccc1C[N+](C)(CCCCCC)CCCCCC.[Cl-].[Cl-]` [Example 2BAMP-6C, 1,2-bis(N,N-dihexyl-N-methylammoniomethyl)phenylene dichloride], in [1], the “MIC Escherichia coli K12 W 3110” value was 1 ppm.

For `CCCCCC[N+](C)(CCCCCC)Cc1cccc(C[N+](C)(CCCCCC)CCCCCC)c1.[Cl-].[Cl-]` [Example 3BAMP-6C, 1,3-bis(N,N-dihexyl-N-methylammoniomethyl)phenylene dichloride], in [1], the “MIC Escherichia coli K12 W 3110” value turned out to be 1 ppm.

With `CCCCCCCCCCCC[N+](C)(C)Cc1ccc(C[N+](C)(C)CCCCCCCCCCCC)cc1.[Cl-].[Cl-]` [Example 4BADMP-12C, 1,4-bis(N-dodecyl-N,N-dimethylammoniomethyl)phenylene dichloride, reference compound], in the data set on Erythrocyte, the “Minimum hemolytic activity concentration Erythrocyte” value is 12.5 ppm.

On to `CCCCCCCC[N+](C)(CCCCCCCC)Cc1ccc(C[N+](C)(CCCCCCCC)CCCCCCCC)cc1.[Cl-].[Cl-]` [Example 4BAMP-8C, 1,4-bis(N,N-dioctyl-N-methylammoniomethyl)phenylene dichloride], for which the “MIC Escherichia coli K12 W 3110” value in [1] is 1 ppm.

With `CCCCCCCC[n+]1ccc(SCc2ccc(CSc3cc[n+](CCCCCCCC)cc3)cc2)cc1.[I-].[I-]` [Example I-8, 4,4′-(p-xylyldithio)-bis(1-octylpyridinium iodide), reference compound], the “Minimum hemolytic activity concentration Erythrocyte” value in the data set with Erythrocyte amounted to 50 ppm.
